Molecular target: T1, glucocerebrosidase (Gcase) (Homo sapiens, UniProt P04062)
T1 construct: micellar solution containing 10 nM GCase and 100 nM saposin C
T1 sequence (P04062 40-536): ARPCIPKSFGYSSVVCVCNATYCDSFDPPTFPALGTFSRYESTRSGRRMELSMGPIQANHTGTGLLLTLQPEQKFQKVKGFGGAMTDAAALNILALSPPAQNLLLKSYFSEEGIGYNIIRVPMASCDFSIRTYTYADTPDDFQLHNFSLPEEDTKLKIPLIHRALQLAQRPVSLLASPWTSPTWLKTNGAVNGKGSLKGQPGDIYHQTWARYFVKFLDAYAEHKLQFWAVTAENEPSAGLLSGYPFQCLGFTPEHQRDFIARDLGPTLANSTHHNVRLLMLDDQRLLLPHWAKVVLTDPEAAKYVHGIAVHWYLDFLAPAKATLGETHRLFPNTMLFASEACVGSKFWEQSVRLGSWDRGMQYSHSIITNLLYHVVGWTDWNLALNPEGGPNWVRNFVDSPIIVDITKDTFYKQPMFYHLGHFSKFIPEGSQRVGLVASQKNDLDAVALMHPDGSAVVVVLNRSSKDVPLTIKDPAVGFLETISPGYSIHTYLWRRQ
Test: Glucocerebrosidase (Gcase) activation assay with 4-methylumbelliferyl-beta-D-glucopyranoside substrate, saposin C and phosphatidylserine/triton micelles, fluorescence readout
Assay type: biochemical
Conditions: for Percent Gcase Activation, 0.1 μM Test Compound: test compound at 0.1 μM; for Percent Gcase Activation, 1 μM Test Compound: test compound at 1.0 μM
Outline: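 10 nM GCase with 100 nM saposin C pre-incubated 30 min with compound in pH 4.7 phosphate/citrate PS/triton micelles, then mixed 1:1 with 2 mM 4-methylumbelliferyl-β-glucoside micellar substrate (stock level). Run 15 min at room temperature, stopped at pH 12.5; fluorescence 365/440 nm. Screened at 1.0 and 0.1 μM; 8-point curves from 5 μM.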

| Compound | Percent Gcase Activation, 0.1 μM Test Compound | Percent Gcase Activation, 1 μM Test Compound |
| --- | --- | --- |
| COc1cncc(-c2cc(C)n3ncc(C(=O)NC(C4CC4)C(F)(F)F)c3n2)c1 (stereo not shown) [III-265] | *** (greater than 20% Gcase activation) | +++ (Gcase activation greater than 60%) |
| COc1cncc(-c2cc(C)n3ncc(C(=O)N[C@H](C4CC4)C(F)(F)F)c3n2)c1 [III-266] | *** (greater than 20% Gcase activation) | +++ (Gcase activation greater than 60%) |
| COc1cncc(-c2cc(C)n3ncc(C(=O)N[C@@H](C4CC4)C(F)(F)F)c3n2)c1 [III-267] | *** (greater than 20% Gcase activation) | +++ (Gcase activation greater than 60%) |
| COc1ccc(-c2cc(C)n3ncc(C(=O)NC(C4CC4)C(F)(F)F)c3n2)cn1 (stereo not shown) [III-268] | *** (greater than 20% Gcase activation) | +++ (Gcase activation greater than 60%) |
| COc1ccncc1-c1cc(C)n2ncc(C(=O)NC(C)C(F)(F)F)c2n1 (stereo not shown) [III-269] | * (less than 10% Gcase activation) | + (less than 30% Gcase activation) |
| COc1cncc(-c2cc(C)n3ncc(C(=O)NC(C)C(F)(F)F)c3n2)c1 (stereo not shown) [III-270] | ** (Gcase activation in the range of 10% up to 20%) | +++ (Gcase activation greater than 60%) |
| COc1ccc(-c2cc(C)n3ncc(C(=O)NC(C)C(F)(F)F)c3n2)cn1 (stereo not shown) [III-271] | *** (greater than 20% Gcase activation) | +++ (Gcase activation greater than 60%) |
| COc1ccc(-c2cc(C)n3ncc(C(=O)N[C@H](C)C(F)(F)F)c3n2)cn1 [III-272] | ** (Gcase activation in the range of 10% up to 20%) | +++ (Gcase activation greater than 60%) |
| COc1ccc(-c2cc(C)n3ncc(C(=O)N[C@@H](C)C(F)(F)F)c3n2)cn1 [III-273] | *** (greater than 20% Gcase activation) | +++ (Gcase activation greater than 60%) |
| Cc1ccncc1-c1cc(C)n2ncc(C(=O)NC(C3CC3)C(F)(F)F)c2n1 (stereo not shown) [III-274] | * (less than 10% Gcase activation) | +++ (Gcase activation greater than 60%) |
| Cc1cncc(-c2cc(C)n3ncc(C(=O)NC(C4CC4)C(F)(F)F)c3n2)c1 (stereo not shown) [III-275] | *** (greater than 20% Gcase activation) | +++ (Gcase activation greater than 60%) |
| Cc1cncc(-c2cc(C)n3ncc(C(=O)N[C@H](C4CC4)C(F)(F)F)c3n2)c1 [III-276] | *** (greater than 20% Gcase activation) | +++ (Gcase activation greater than 60%) |
| Cc1cncc(-c2cc(C)n3ncc(C(=O)N[C@@H](C4CC4)C(F)(F)F)c3n2)c1 [III-277] | *** (greater than 20% Gcase activation) | +++ (Gcase activation greater than 60%) |
| Cc1ccc(-c2cc(C)n3ncc(C(=O)NC(C4CC4)C(F)(F)F)c3n2)cn1 (stereo not shown) [III-278] | *** (greater than 20% Gcase activation) | +++ (Gcase activation greater than 60%) |
| Cc1ccc(-c2cc(C)n3ncc(C(=O)N[C@H](C4CC4)C(F)(F)F)c3n2)cn1 [III-279] | ** (Gcase activation in the range of 10% up to 20%) | +++ (Gcase activation greater than 60%) |
| Cc1ccc(-c2cc(C)n3ncc(C(=O)N[C@@H](C4CC4)C(F)(F)F)c3n2)cn1 [III-280] | *** (greater than 20% Gcase activation) | +++ (Gcase activation greater than 60%) |
| Cc1ccncc1-c1cc(C)n2ncc(C(=O)NC(C)C(F)(F)F)c2n1 (stereo not shown) [III-281] | * (less than 10% Gcase activation) | + (less than 30% Gcase activation) |

Source: patent US10934298B2, “Substituted pyrazolo[1,5-a]pyrimidines for the treatment of medical disorders” (BIAL—BioTech Investments, Inc., priority 2016, dated 2021)
